The IC50 is the concentration needed to halve the response being measured.

The text below walks through data of patent US8598155B2, “Imidazo[5,1-f][1,2,4]triazines for the treatment of neurological disorders” (Pfizer Inc., priority 2011, dated 2013).

For the assay, the target named is human full-length PDE2A3 enzyme (Homo sapiens (Human), UniProt O00408). The note with it: read-out: IC50 (assay validation control); PDE2A3 SPA validation; IC50 values obtained were within 3× of literature values.
Chain of human full-length PDE2A3 enzyme (O00408 whole entry): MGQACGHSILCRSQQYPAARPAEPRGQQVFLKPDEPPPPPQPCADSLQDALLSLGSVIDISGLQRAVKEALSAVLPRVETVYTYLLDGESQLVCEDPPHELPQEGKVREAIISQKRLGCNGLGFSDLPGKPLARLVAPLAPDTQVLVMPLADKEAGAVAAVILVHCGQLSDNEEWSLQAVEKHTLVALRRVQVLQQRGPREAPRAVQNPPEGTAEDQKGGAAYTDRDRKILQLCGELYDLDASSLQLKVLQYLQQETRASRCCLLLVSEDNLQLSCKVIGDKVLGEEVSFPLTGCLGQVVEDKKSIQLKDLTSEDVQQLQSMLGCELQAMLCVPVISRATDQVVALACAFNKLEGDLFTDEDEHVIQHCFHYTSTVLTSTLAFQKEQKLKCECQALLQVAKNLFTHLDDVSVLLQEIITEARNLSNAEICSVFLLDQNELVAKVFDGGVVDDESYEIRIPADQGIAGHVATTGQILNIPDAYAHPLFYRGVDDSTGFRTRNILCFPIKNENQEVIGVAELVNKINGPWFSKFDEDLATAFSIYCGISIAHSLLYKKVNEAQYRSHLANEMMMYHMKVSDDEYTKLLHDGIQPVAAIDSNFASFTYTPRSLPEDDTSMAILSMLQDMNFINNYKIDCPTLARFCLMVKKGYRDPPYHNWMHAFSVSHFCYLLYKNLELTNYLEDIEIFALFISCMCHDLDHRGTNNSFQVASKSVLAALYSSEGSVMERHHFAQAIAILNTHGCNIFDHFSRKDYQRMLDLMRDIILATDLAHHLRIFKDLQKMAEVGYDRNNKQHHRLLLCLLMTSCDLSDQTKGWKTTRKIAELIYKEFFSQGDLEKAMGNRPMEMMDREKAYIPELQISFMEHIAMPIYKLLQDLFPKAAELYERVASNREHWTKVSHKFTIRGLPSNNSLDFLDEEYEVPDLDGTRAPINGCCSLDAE

Procedure: Measurement of Recombinant Human PDE2A3 Inhibition by SPA Technology
In the present assay, the activity of the test substances on human full-length PDE2A3 enzyme was determined using the [^3H]-cGMP scintillation proximity assay (SPA) modified from the Amersham TRKQ7100 instructions (GE Healthcare, USA). PDE2A3 protein was obtained from FLAG purification of sf21 insect cells using standard affinity purification procedures for this tag (anti-FLAG M2, Sigma Aldrich). Briefly, the SPA assays were performed using PDE SPA yttrium silicate beads (Perkin Elmer RPNQ0024) which bind preferentially to the linear nucleotide, GMP, compared to the cyclic nucleotide, cGMP. The, ^3H-GMP product was detected using a Wallac MicroBeta scintillation counter. The reaction time was chosen with respect to the amount of time in which 10-20% of substrate was hydrolyzed by the enzyme.
The corresponding IC50 values of the compounds for the inhibition of PDE activities are determined from the concentration-effect curves by means of non-linear regression.

Turning to `CCCCCC[C@@H]([C@@H](C)O)n1cnc2c(N)ncnc21` (racemic) [EHNA], the IC50 turned out to be 1.7 µM.
